Like-named read-outs stand apart in the source and are kept apart here.
Key:
[1] = system: CCRF-CEM cell line; experiment: dCK cellular assay: CCRF-CEM proliferation in the presence of dT and dC; assay type: cell-based, human
Description: The dCK cellular assay was set up to assess the ability to inhibit dCK activity in a cellular model. The model was developed with a T-cell acute lymphoblastic leukemia cell line (CCRF-CEM), because of its high dependence on the SP, thus on dCK activity. Cellular assays were performed to assess the inhibition of cell proliferation under two conditions: (i) in the presence of the compound alone to determine the nonspecific effect on cells, independent of dCK (nonspecific toxicity) and (ii) in the presence of an inhibitor of the DNP to determine the ability of compounds to inhibit dCK and decrease tumor proliferation (activity on dCK). The inhibitor of the DNP chosen for the experiments was thymidine (dT), a physiological inhibitor of ribonucleotide reductase which arrests cell proliferation in phase S. The dTTP produced via thymidine kinase from dT acts as a RNR inhibitor by an allosteric regulation of the R1 subunit. The addition of the nucleoside deoxycytidine (dC) in the medium allows the rescue of cell proliferation by passing only through the salvage pathway, mediated by dCK. dC needs to be added exogenously to mimic physiological concentrations because it is not present in the cell culture medium, on the contrary to mouse model, in which it is naturally present in the serum. Therefore, cell proliferation under these conditions (+dT +dC) is dCK dependent and it is possible to determine the IC50 of dCK inhibitors on the inhibition of cell proliferation. Results are expressed as % cell proliferation relative to the control with DMSO.
The amount of reduced dye formed by metabolically active cells was quantified by its fluorescence measured at 560 nm (excitation) and 590 nm (emission) in a microplate reader (CLARIOstar, BMG Labtech). A blank well without cells was used as a background control. Each experiment was performed at least three times (with technical triplicates) and data are presented as the mean ± SD.

[2] = system: dCK-C3S-S74E; experiment: Thermal shift assay (TSA); conditions: for ΔTm (º) (TSA): Figure 2a, mean; for THERMAL SHIFT ASSAY +Tm (°): mean ± SD
[3] = Homo sapiens, Figure 2a, CCRF-CEM cell line, mean, read-out: IC50 (nM) (Cell Prolif)
[4] = Homo sapiens, read-out: dCK CELLULAR ASSAY IC50 (nM), CCRF-CEM, 200 µM dT and 1 µM dC, read-out: dCK […] ASSAY IC50

Sequence of dCK-C3S-S74E (P27707 whole entry S74E, form open): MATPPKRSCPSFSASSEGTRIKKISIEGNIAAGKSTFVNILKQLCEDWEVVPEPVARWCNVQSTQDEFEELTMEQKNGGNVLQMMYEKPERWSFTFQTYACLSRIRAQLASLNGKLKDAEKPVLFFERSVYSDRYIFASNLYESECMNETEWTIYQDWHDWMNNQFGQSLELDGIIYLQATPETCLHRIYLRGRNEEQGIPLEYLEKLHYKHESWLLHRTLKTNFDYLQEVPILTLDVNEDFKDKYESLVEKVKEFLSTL

SMILES	IC50 [1, 3] [nM]	ΔTm (º) (TSA) [2]	THERMAL SHIFT ASSAY +Tm (°) [2] [°]	IC50 [1, 4] [nM]	IC50 ([1]; Figure 2a, CCRF-CEM cell line, mean, read-out: IC50 (nM) (Cell Prolif))
CCCN(c1nc(-c2nc(N)cc(N)n2)cs1)c1cc(-c2cccnc2)ccc1C [OR0620]	407	15.71 º	15.7 ± 0.5		
CCCN(c1nc(-c2nc(N)cc(N)n2)cs1)c1cc(-c2c(F)cc(S(=O)(=O)N3CCN(C)CC3)cc2OC)ccc1C [OR0644]	12.1	20.5 º	20.5 ± 1.2		
Cc1ccc(-c2ccc(CCN3CCN(C)CC3)cc2)cc1N(CCN)c1nc(-c2nc(N)cc(N)n2)cs1 [OR0610]	16400	14.7 º	14.7 ± 0.2		
CCCN(c1nc(-c2nc(N)cc(N)n2)cs1)c1cc(-c2ccc(C(=O)N3CCOCC3)nc2)ccc1C [OR0621]	169	16.63 º	16.6 ± 0.9		
CCCN(c1nc(-c2nc(N)cc(N)n2)cs1)c1cc(-c2ccc(S(=O)(=O)N3CCN(C)CC3)cc2)cc(F)c1C [OR0633]	140	17.25 º	17.3 ± 0.1		
CCCN(c1nc(-c2nc(N)cc(N)n2)cs1)c1cc(-c2ccc(S(=O)(=O)N3CCC(N)CC3)cc2)ccc1C [OR0648]	134	22.28 º	22.3 ± 1.1		
CCCN(c1nc(-c2nc(N)cc(N)n2)cs1)c1cc(-c2ccc(S(=O)(=O)N3CCN(CC)CC3)cc2)ccc1C [OR0638]	35	20.22 º	20.2 ± 0.9		
CCCN(c1nc(-c2nc(N)cc(N)n2)cs1)c1cc(-c2ccc(OCCN3CCN(C)CC3)nc2)ccc1C [OR0629]	139	20.6 º	20.6 ± 0.1		
CCCN(c1nc(-c2nc(N)cc(N)n2)cs1)c1cc(-c2ccc(S(=O)(=O)N3CCN(C)CC3)cc2OC)ccc1C [OR0645]	67.4	19.72 º	19.7 ± 0.9	67 ± 22	
Cc1ccc(-c2ccc(S(=O)(=O)N3CCN(C)CC3)cc2)cc1N(CC(C)C)c1nc(-c2nc(N)cc(N)n2)cs1 [OR0637]	88.3	20.49 º	20.5 ± 0.9	84 ± 49	
Cc1ccc(NC(=O)c2cnc(CN3CCN(C)CC3)nc2)cc1Nc1nc(-c2nccc(N)n2)cs1 [OR0125]			10.3 ± 0.0	37700 ± 4380	
CCCN(c1nc(-c2nc(N)cc(N)n2)cs1)c1cc(-c2ccc(S(=O)(=O)N3CCN(C)CC3)cc2F)ccc1C [OR0643]	45.7	20.22 º	20.2 ± 0.9	46 ± 18	
CCCN(c1nc(-c2nc(N)cc(N)n2)cs1)c1cc(-c2ccc(S(=O)(=O)N3CCNCC3)cc2)ccc1C [OR0639]	119	20.72 º	20.7 ± 0.9		
CCCN(c1nc(-c2nc(N)cc(N)n2)cs1)c1cc(-c2ccc(NS(=O)(=O)N3CCN(C)CC3)nc2)ccc1C [OR0625]	353	16.82 º	16.8 ± 0.7		
Cc1ccc(-n2cc(CNS(C)(=O)=O)nn2)cc1N(CC(C)C)c1nc(-c2nc(N)cc(N)n2)cs1 [OR0609]		13.5 º	13.5 ± 0.7		3180
CCCN(c1nc(-c2nc(N)cc(N)n2)cs1)c1cc(-c2ccc(S(=O)(=O)C3CCNCC3)cc2)ccc1C [OR0646]	171	22.39 º	22.4 ± 1.1		
CCCN(c1nc(-c2nc(N)cc(N)n2)cs1)c1cc(-c2ccc(S(=O)(=O)N3CCN(C)CC3)c(OC(F)(F)F)c2)ccc1C [OR0650]	120	18.61 º	18.6 ± 1.5		
